Entries after “also recorded” stand apart in the source; their conditions may differ.
Tests used:
[1] = test system: PSMA positive LNCaP cells; assay: Cell uptake in PSMA positive LNCaP cells; format: cell-based; details: 1 hr incubation at 37° C.
[2] = In vivo biodistribution in mice; design: species or system normal CD-1 male mice; details: for bone to blood ratio / bone to muscle ratio / Biodistribution: Blood / Biodistribution: Bone / Biodistribution: Brain / Biodistribution: Heart / Biodistribution: Kidney / Biodistribution: Liver / Biodistribution: Lung / Biodistribution: Muscle / Biodistribution: Pancreas / Biodistribution: Skin / Biodistribution: Spleen: iv
Method in brief: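 Normal male CD-1 mice (25-30 g) received 20-30 μCi of ^68Ga-labelled tracer or [^18F]NaF intravenously and were sacrificed at 2, 30, 60 and 120 min. Harvested organs, with tibia and femur as bone, were weighed and gamma-counted; uptake is expressed as % ID/g wet tissue.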

[3] = In vitro binding to hydroxyapatite; details: 20 mg hydroxyapatite in saline, 10 min at room temperature
Method in brief: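 Hydroxyapatite was pre-incubated 24 h in isotonic saline, then ^68Ga-labelled compound (1 μCi) was added and incubated 10 min at room temperature. After centrifugation and two saline washes, gamma counting of supernatants and solid gave percent ^68Ga bound to hydroxyapatite.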

[4] = test system: PSMA negative PC3 cells; assay: Cell uptake in PSMA negative PC3 cells; format: cell-based; details: 1 hr incubation at 37° C.
[5] = test system: PSMA expressing LNCaP tumor; assay: Micro-PET imaging in PSMA expressing tumor bearing mouse; format: in vivo, nude mice; details: 500 μCi, 60 min post injection, 15 min scan
Description: (§1) [^68Ga]1a, [^68Ga]BPAMD and [^18F]NaF were tested in normal CD-1 male mice. [^68Ga]1g was tested in PSMA expressing LNCaP tumor bearing nude mice. Mice received 300-500 uCi radiotracer through a tail vein injection. PET imaging was performed under isoflurane anaesthesia (2% isoflurane, 1.5 L/min oxygen). The microPET imaging was performed with a small animal PET (Mosaic by Phillips, USA). During PET measurements, the animals were placed in the prone position. At 60 min post injection of the radiotracer, data acquisition was performed for 15 min.

[6] = Micro-PET imaging in normal mice; format: in vivo, normal CD-1 male mice; details: 15 min scan at 60 min post-injection
Description: as §1

Q: With `O=C(O)CCC(CP(=O)(O)O)C(=O)O` (stereo not shown) [2-PMPA, 2-(phosphonomethyl)pentane-1,5-dioic acid, reference compound] as the compound, how does the “Blocking of [68Ga]1g cell uptake to PSMA positive LNCaP cells” value [1] read?
A: blocked the cell uptake

Q: What does the source list for `O=C([O-])CN(CCN(CC(=O)[O-])Cc1cc(CCC(=O)NC(P(=O)(O)O)P(=O)(O)O)ccc1[O-])Cc1cc(CCC(=O)NCCCCCC(=O)NCCCC[C@H](NC(=O)N[C@@H](CCC(=O)O)C(=O)O)C(=O)O)ccc1[O-].[68Ga+3]` [[^68Ga]1g]?
A: bone to blood ratio ([2]; 2 min): 0.97; bone to muscle ratio ([2]; 2 min): 3.71; Biodistribution: Blood ([2]; 2 min post injection): 8.34 ± 0.51 % dose/g; Biodistribution: Bone ([2]; 2 min post injection): 8.13 ± 1.87 % dose/g; Biodistribution: Brain ([2]; 2 min post injection): 0.21 ± 0.03 % dose/g; Biodistribution: Heart ([2]; 2 min post injection): 3.13 ± 0.15 % dose/g; Biodistribution: Kidney ([2]; 2 min post injection): 35.3 ± 3.75 % dose/g; Biodistribution: Liver ([2]; 2 min post injection): 1.73 ± 0.09 % dose/g; Biodistribution: Lung ([2]; 2 min post injection): 4.19 ± 0.50 % dose/g; Biodistribution: Muscle ([2]; 2 min post injection): 2.19 ± 0.11 % dose/g; Biodistribution: Pancreas ([2]; 2 min post injection): 1.69 ± 0.13 % dose/g; Biodistribution: Skin ([2]; 2 min post injection): 2.97 ± 0.14 % dose/g; Biodistribution: Spleen ([2]; 2 min post injection): 2.50 ± 0.41 % dose/g; bone to blood ratio ([2]; 30 min): 29; bone to muscle ratio ([2]; 30 min): 46; Biodistribution: Blood ([2]; 30 min (0.5 hr) post injection): 0.56 ± 0.10 % dose/g; Biodistribution: Bone ([2]; 30 min (0.5 hr) post injection): 16.3 ± 0.68 % dose/g; Biodistribution: Brain ([2]; 30 min (0.5 hr) post injection): 0.03 ± 0.00 % dose/g; Biodistribution: Heart ([2]; 30 min (0.5 hr) post injection): 0.45 ± 0.07 % dose/g; Biodistribution: Kidney ([2]; 30 min (0.5 hr) post injection): 77.1 ± 8.24 % dose/g; Biodistribution: Liver ([2]; 30 min (0.5 hr) post injection): 0.27 ± 0.02 % dose/g; Biodistribution: Lung ([2]; 30 min (0.5 hr) post injection): 1.02 ± 0.13 % dose/g; Biodistribution: Muscle ([2]; 30 min (0.5 hr) post injection): 0.35 ± 0.02 % dose/g; Biodistribution: Pancreas ([2]; 30 min (0.5 hr) post injection): 0.69 ± 0.02 % dose/g; Biodistribution: Skin ([2]; 30 min (0.5 hr) post injection): 0.65 ± 0.05 % dose/g; Biodistribution: Spleen ([2]; 30 min (0.5 hr) post injection): 2.09 ± 0.75 % dose/g; bone to blood ratio ([2]; 60 min): 53; bone to muscle ratio ([2]; 60 min): 74; Biodistribution: Blood ([2]; 60 min (1 hr) post injection): 0.28 ± 0.05 % dose/g; Biodistribution: Bone ([2]; 60 min (1 hr) post injection): 15.1 ± 1.04 % dose/g; Biodistribution: Brain ([2]; 60 min (1 hr) post injection): 0.03 ± 0.01 % dose/g; Biodistribution: Heart ([2]; 60 min (1 hr) post injection): 0.32 ± 0.03 % dose/g; Biodistribution: Kidney ([2]; 60 min (1 hr) post injection): 78.4 ± 7.11 % dose/g; Biodistribution: Liver ([2]; 60 min (1 hr) post injection): 0.18 ± 0.01 % dose/g; Biodistribution: Lung ([2]; 60 min (1 hr) post injection): 0.58 ± 0.02 % dose/g; Biodistribution: Muscle ([2]; 60 min (1 hr) post injection): 0.21 ± 0.02 % dose/g; Biodistribution: Pancreas ([2]; 60 min (1 hr) post injection): 0.37 ± 0.07 % dose/g; Biodistribution: Skin ([2]; 60 min (1 hr) post injection): 0.42 ± 0.06 % dose/g; Biodistribution: Spleen ([2]; 60 min (1 hr) post injection): 0.91 ± 0.13 % dose/g; bone to blood ratio ([2]; 120 min): 98; bone to muscle ratio ([2]; 120 min): 98; Biodistribution: Blood ([2]; 120 min post injection): 0.17 ± 0.03 % dose/g; Biodistribution: Bone ([2]; 120 min post injection): 17.0 ± 0.05 % dose/g; Biodistribution: Brain ([2]; 120 min post injection): 0.02 ± 0.00 % dose/g; Biodistribution: Heart ([2]; 120 min post injection): 0.20 ± 0.03 % dose/g; Biodistribution: Kidney ([2]; 120 min post injection): 70.3 ± 8.29 % dose/g; Biodistribution: Liver ([2]; 120 min post injection): 0.18 ± 0.02 % dose/g; Biodistribution: Lung ([2]; 120 min post injection): 0.47 ± 0.04 % dose/g; Biodistribution: Muscle ([2]; 120 min post injection): 0.17 ± 0.04 % dose/g; Biodistribution: Pancreas ([2]; 120 min post injection): 0.34 ± 0.03 % dose/g; Biodistribution: Skin ([2]; 120 min post injection): 0.29 ± 0.06 % dose/g; Biodistribution: Spleen ([2]; 120 min post injection): 0.87 ± 0.20 % dose/g; Hydroxyapatite Binding (%) [3]: 88.0 ± 10.5%; Cell uptake in PSMA positive LNCaP cells (in words) [1]: high cell uptake and retention only in LNCaP cells; also recorded: excellent uptake; Cell uptake in PSMA negative PC3 cells (in words) [4]: no uptake; Micro-PET targeting (in words) [5]: targets both bone and PSMA binding sites

Q: Which results are given for `O=C(O)CN1CCN(CC(=O)O)CCN(CC(=O)NC(P(=O)(O)O)P(=O)(O)O)CCN(CC(=O)O)CC1.[68Ga]` [[^68Ga]BPAMD, reference compound]?
A: bone to blood ratio ([2]; 2 min): 0.8; bone to muscle ratio ([2]; 2 min): 4.3; Biodistribution: Blood ([2]; 2 min post injection): 9.45 ± 0.55 % dose/g; Biodistribution: Bone ([2]; 2 min post injection): 7.07 ± 0.94 % dose/g; Biodistribution: Brain ([2]; 2 min post injection): 0.26 ± 0.01 % dose/g; Biodistribution: Heart ([2]; 2 min post injection): 2.74 ± 0.23 % dose/g; Biodistribution: Kidney ([2]; 2 min post injection): 22.1 ± 8.80 % dose/g; Biodistribution: Liver ([2]; 2 min post injection): 1.92 ± 0.31 % dose/g; Biodistribution: Lung ([2]; 2 min post injection): 4.58 ± 0.36 % dose/g; Biodistribution: Muscle ([2]; 2 min post injection): 1.63 ± 0.35 % dose/g; Biodistribution: Pancreas ([2]; 2 min post injection): 1.73 ± 0.11 % dose/g; Biodistribution: Skin ([2]; 2 min post injection): 2.57 ± 0.53 % dose/g; Biodistribution: Spleen ([2]; 2 min post injection): 1.90 ± 0.14 % dose/g; bone to blood ratio ([2]; 30 min): 10; bone to muscle ratio ([2]; 30 min): 19; Biodistribution: Blood ([2]; 30 min (0.5 hr) post injection): 1.02 ± 0.19 % dose/g; Biodistribution: Bone ([2]; 30 min (0.5 hr) post injection): 10.5 ± 0.6 % dose/g; Biodistribution: Brain ([2]; 30 min (0.5 hr) post injection): 0.06 ± 0.02 % dose/g; Biodistribution: Heart ([2]; 30 min (0.5 hr) post injection): 0.29 ± 0.02 % dose/g; Biodistribution: Kidney ([2]; 30 min (0.5 hr) post injection): 1.46 ± 0.19 % dose/g; Biodistribution: Liver ([2]; 30 min (0.5 hr) post injection): 0.22 ± 0.02 % dose/g; Biodistribution: Lung ([2]; 30 min (0.5 hr) post injection): 0.50 ± 0.16 % dose/g; Biodistribution: Muscle ([2]; 30 min (0.5 hr) post injection): 0.55 ± 0.11 % dose/g; Biodistribution: Pancreas ([2]; 30 min (0.5 hr) post injection): 0.27 ± 0.14 % dose/g; Biodistribution: Skin ([2]; 30 min (0.5 hr) post injection): 0.39 ± 0.15 % dose/g; Biodistribution: Spleen ([2]; 30 min (0.5 hr) post injection): 0.22 ± 0.14 % dose/g; bone to blood ratio ([2]; 60 min): 10; bone to muscle ratio ([2]; 60 min): 30; Biodistribution: Blood ([2]; 60 min (1 hr) post injection): 0.93 ± 0.06 % dose/g; Biodistribution: Bone ([2]; 60 min (1 hr) post injection): 9.21 ± 0.90 % dose/g; Biodistribution: Brain ([2]; 60 min (1 hr) post injection): 0.04 ± 0.00 % dose/g; Biodistribution: Heart ([2]; 60 min (1 hr) post injection): 0.37 ± 0.06 % dose/g; Biodistribution: Kidney ([2]; 60 min (1 hr) post injection): 2.88 ± 1.51 % dose/g; Biodistribution: Liver ([2]; 60 min (1 hr) post injection): 0.25 ± 0.03 % dose/g; Biodistribution: Lung ([2]; 60 min (1 hr) post injection): 0.51 ± 0.09 % dose/g; Biodistribution: Muscle ([2]; 60 min (1 hr) post injection): 0.31 ± 0.04 % dose/g; Biodistribution: Pancreas ([2]; 60 min (1 hr) post injection): 0.30 ± 0.02 % dose/g; Biodistribution: Skin ([2]; 60 min (1 hr) post injection): 0.60 ± 0.08 % dose/g; Biodistribution: Spleen ([2]; 60 min (1 hr) post injection): 0.21 ± 0.02 % dose/g; bone to blood ratio ([2]; 120 min): 11; bone to muscle ratio ([2]; 120 min): 33; Biodistribution: Blood ([2]; 120 min post injection): 0.90 ± 0.41 % dose/g; Biodistribution: Bone ([2]; 120 min post injection): 9.62 ± 0.71 % dose/g; Biodistribution: Brain ([2]; 120 min post injection): 0.03 ± 0.01 % dose/g; Biodistribution: Heart ([2]; 120 min post injection): 0.26 ± 0.07 % dose/g; Biodistribution: Kidney ([2]; 120 min post injection): 1.09 ± 0.26 % dose/g; Biodistribution: Liver ([2]; 120 min post injection): 0.31 ± 0.11 % dose/g; Biodistribution: Lung ([2]; 120 min post injection): 0.45 ± 0.10 % dose/g; Biodistribution: Muscle ([2]; 120 min post injection): 0.29 ± 0.06 % dose/g; Biodistribution: Pancreas ([2]; 120 min post injection): 0.33 ± 0.07 % dose/g; Biodistribution: Skin ([2]; 120 min post injection): 0.55 ± 0.04 % dose/g; Biodistribution: Spleen ([2]; 120 min post injection): 0.25 ± 0.08 % dose/g; Biodistribution result in words (organ uptake, retention, excretion) ([2]; normal mice after iv injection): less bone uptake and retention; Hydroxyapatite Binding (%) [3]: 90.6 ± 6.0%; Micro-PET localization (in words) [6]: localized in the spines of mice

From patent publication US10253052B2, “HBED-bisphosphonates, radiometal conjugates and their use as theranostic agents” (Five Eleven Pharma Inc., priority 2015, dated 2019)
